In brackets after ≈: the same amount, converted by molar mass. Like-named read-outs stand apart in the source and are kept apart here. Non-standard residues stand in square brackets, D forms with d. Residues, ends and D or L forms follow the SMILES beside them. d1Nal = N[C@H](Cc1cccc2ccccc12)C(=O)O
What was measured:
Staphylococcus aureus = settings: for MBC: agent alone
E. coli = settings: for MBC: agent alone
[1] = 0.3 mg/kg intravenous
[2] = rat, 0.3 mg/kg intravenous
Description: Whole body autoradiography studies measured the concentration of tritium in tissues at several time points following dosing. From these concentrations, area under the concentration vs. time curve (AUC) was calculated as a measure of overall exposure (see Table 25).

**Q.** Which results are given for Neomycin?
**A.** MBC (antibiotic alone) (Staphylococcus aureus; Staphylococcus aureus 342U-116): 1 µg/mL; MBC (antibiotic alone) (E. coli; E. coli 4104 LF): 1 µg/mL

**Q.** For `CO/N=C(\C(=O)N[C@@H]1C(=O)N2C(C(=O)O)=C(COC(N)=O)CS[C@H]12)c1ccco1` [Cefuroxime], which “MBC (antibiotic alone)” value (E. coli; E. coli 4104 LF) is on record?
**A.** 8 µg/mL (≈ 18.9 µM)

**Q.** With `CC(=O)OCC1=C(C(=O)O)N2C(=O)[C@@H](NC(=O)Cc3cccs3)[C@H]2SC1` [Cephalothin] as the compound, how does the “MBC (antibiotic alone)” value (Staphylococcus aureus; Staphylococcus aureus 342U-116) read?
**A.** 1 µg/mL (≈ 2.52 µM)

**Q.** What does the source list for Penicillin?
**A.** MBC (Staphylococcus aureus; Staphylococcus aureus 076U-550): <0.06 µg/mL; MBC (Staphylococcus aureus; Staphylococcus aureus 230U-579): >10 µg/mL; MBC (Staphylococcus aureus; Staphylococcus aureus 314U-148): >10 µg/mL; MBC (Staphylococcus aureus; Staphylococcus aureus 342U-116): >10 µg/mL; MBC (Staphylococcus aureus; Staphylococcus aureus 15031-1857): >10 µg/mL; MBC (E. coli; E. coli 706U2-1081): >10 µg/mL; MBC (E. coli; E. coli 4104 LF): >10 µg/mL

**Q.** Which results are given for `CC(C)C[C@@H](NC(=O)[C@H](N)CCCCN)C(=O)N[C@H](Cc1ccccc1)C(=O)N[C@H](CCCNC(=N)N)C(=O)N[C@H](Cc1cccc2ccccc12)C(=O)N[C@H](CCC(N)=O)C(=O)N[C@H](C)C(=O)N[C@H](CCCCN)C(=O)N[C@H](Cc1cccc2ccccc12)C(N)=O` [[^3H]-labeled XMP.629] (H-[dK][dL][dF][dR][d1Nal][dQ][dA][dK][d1Nal]-NH2)?
**A.** Central compartment volume of distribution [1]: ~0.12 L/kg; alpha half-life [1]: ~2 min; beta half-life [1]: ~45 min; clearance [1]: ~6 mL/min/kg; plasma concentrations by 24 hours following dosing [1]: approximately 0.005 μg/mL; terminal half-life [1]: ~480 min; average half-life ([1]; three compartment model): approximately 0.24 hours; AUC0-tlast ([2]; Adrenal): 64.98 μg equivalents * hr/g; AUC0-tlast ([2]; Blood): 0.24 μg equivalents * hr/g; AUC0-tlast ([2]; Bone marrow): 82.65 μg equivalents * hr/g; AUC0-tlast ([2]; Cervical lymph node): 86.07 μg equivalents * hr/g; AUC0-tlast ([2]; Eye uveal tract): 1.14 μg equivalents * hr/g; AUC0-tlast ([2]; Kidney): 20.20 μg equivalents * hr/g; AUC0-tlast ([2]; Liver): 191.86 μg equivalents * hr/g; AUC0-tlast ([2]; Lung): 29.25 μg equivalents * hr/g; AUC0-tlast ([2]; Popliteal lymph node): 165.30 μg equivalents * hr/g; AUC0-tlast ([2]; Renal medulla high): 19.83 μg equivalents * hr/g; AUC0-tlast ([2]; Spleen): 60.94 μg equivalents * hr/g; AUC0-tlast ([2]; Thyroid): 23.38 μg equivalents * hr/g

**Q.** What does the source list for `CC1COc2c(N3CCN(C)CC3)c(F)cc3c(=O)c(C(=O)O)cn1c23` (stereo not shown) [Ofloxacin]?
**A.** MBC (antibiotic alone) (Staphylococcus aureus; Staphylococcus aureus 342U-116): 1 µg/mL (≈ 2.77 µM); MBC (antibiotic alone) (E. coli; E. coli 4104 LF): ≦0.125 μg/mL

**Q.** Which “MBC (antibiotic alone)” value (Staphylococcus aureus; Staphylococcus aureus 342U-116) does the source give for `CC1(C)S[C@@H]2[C@H](NC(=O)[C@H](N)c3ccccc3)C(=O)N2[C@H]1C(=O)O` [Ampicillin] here?
**A.** 8 µg/mL (≈ 22.9 µM)

**Q.** What about the “MBC (antibiotic alone)” value (E. coli; E. coli 4104 LF) of the same compound?
**A.** 32 µg/mL (≈ 91.6 µM)

From US20050148495A1, “Methods and materials including for treating acne” (priority 2003, published 2005)
